Reference: patent US20230054194A1, “Methods of Treating Cancer” (ARIAGEN, INC., priority 2018, published 2023)

Key:
MC38 = MC38 subcutaneous syngeneic colon cancer mouse model (Study 1), tumor growth inhibition; format: in vivo, mouse (C57BL/6); conditions: for TGI(%) / Tumor size (Mean ± SEM): MC38 model, i.p., ARI compounds 160 mg/kg QD × 17 doses, Anti-PD-1 10 BIW × 5 doses, study end day Day 26
Method: (§1) In this example, the in vivo anti-tumor efficacy of ARI-001, ARI-002, ARI-003, and ARI-143 and their combinations with an anti-PD-1 antibody was evaluated using a panel of twelve subcutaneous syngeneic mouse tumor models.
(§2) Eleven subcutaneous syngeneic mouse tumor models were generated by innoculating female BALB/C or C57BL/6 mice with cancer cells at their right lower or right front flank followed by randomization as detailed in Table 4 below.
(§3) A solution of a rat monoclonal anti-mouse PD-1 antibody (isotype IgG2a, κ) at a concentration of 6.61 mg/ml was obtained from BioXcell (InVivoMAb anti-mouse PD-1 (CD279), Clone RMP1-14, Cat #BE0146)) and store at 4° C. The antibody solution was diluted with PBS to obtain a 1 mg/ml dosing solution.
(§4) ARI-001, ARI-002, and ARI-003 powder was stored at −20° C. The powder of each compound was dissolved in DMSO to obtain dosing solutions at 106.7, 80, and 53.33 mg/ml for administration to mice at 160, 120, and 80 mg/kg, respectively. ARI-143 was similarly prepared.
(§5) Twelve studies using the twelve subcutaneous syngeneic mouse tumor models were performed. In each study, 80 mice were enrolled and randomly allocated to eight different study groups, with 10 mice in each study group. The mean tumor size at randomization was approximately 80-120 mm^3 (around 100 mm^3). Randomization was performed based on “Matched distribution” randomization method (StudyDirector™ software, version 3.1.399.19). […] All the drugs and vehicle controls were injected to the mice intraperitoneally.
(§6) After tumor cell inoculation, the animals were checked daily for morbidity and mortality. At the time of routine monitoring, the animals were checked for any effects of tumor growth and treatments on behavior such as mobility, food and water consumption, body weight gain/loss (body weights were measured twice or three times per week after randomization), and any other abnormalities. Mortality and observed clinical signs were recorded for individual animals. Tumor volumes were measured twice or three times weekly after randomization in two dimensions using a caliper, and the volume was expressed in mm^3 using the formula: […]
(§7) where V is tumor volume, L is tumor length (the longest tumor dimension) and W is tumor width (the longest tumor dimension perpendicular to L).
(§8) The study was terminated when the mean tumor volume (MTV) in the vehicle group reached a value of 2,000 mm^3. Tumor growth inhibition (TGI) is an indication of antitumor activity, and expressed as: […]
(§9) where T and C are the MTV (or weight) of the treated and control groups, respectively, on a given day. Statistical analysis of the difference in MTV among the groups was conducted using the data collected on the day when the MTV of the vehicle group reached the humane endpoints, so that TGI could be derived for all or most mice enrolled in the study.
(§10) Statistical analysis of differences in MTV among the groups was conducted by Independent-Samples T Test using the data collected. All data were analyzed with SPSS (Statistical Product and Service Solutions) version 18.0 (IBM, Armonk, N.Y., U.S.). P-values were rounded to three decimal places, with the exception that raw P-values less than 0.001 were stated as P<0.001. All tests were two-sided. P<0.05 was considered to be statistically significant.
FIG. 60 is a graph showing the mean tumor volume on different study days in the study groups as indicated according to Study 1 (MC38). The study end day was Day 26.

EMT-6 = EMT-6 subcutaneous syngeneic breast cancer mouse model (Study 2 and Study 12), tumor growth inhibition; format: in vivo, mouse (BALB/C); conditions: for TGI(%) / Tumor size (Mean ± SEM): EMT-6 model (Study 2), i.p., ARI-001 160/120 mg/kg QD × 15/6 doses, ARI-002 and ARI-003 160 mg/kg QD × 21 doses, Anti-PD-1 10 BIW × 6 doses, study end day Day 27; for anti-tumor potency of anti-PD-1 antibody combined with the compound, compared to the antibody alone or the vehicle / anti-tumor potency of the compound combined with anti-PD-1 antibody, compared to being used alone: EMT-6 syngeneic breast cancer model
Method: as §1, §2, §3, §4, §5, §6, §7, §8, §9, §10
FIG. 61 is a graph showing the mean tumor volume on different study days in the study groups as indicated according to Study 2 (EMT-6). The study end day was Day 27.

Pan02 = Pan02 subcutaneous syngeneic pancreatic cancer mouse model (Study 3), tumor growth inhibition; format: in vivo, mouse (C57BL/6); conditions: for TGI(%) / Tumor size (Mean ± SEM): Pan02 model, i.p., ARI compounds 160 mg/kg QD × 28 doses, Anti-PD-1 10 BIW × 8 doses, study end day Day 32; for anti-tumor potency of anti-PD-1 antibody combined with the compound, compared to the antibody alone: Pan02 syngeneic pancreatic cancer model
Method: as §1, §2, §3, §4, §5, §6, §7, §8, §9, §10
FIG. 62 is a graph showing the mean tumor volume on different study days in the study groups as indicated according to Study 3 (Pan02). The study end day was Day 32.

RM-1 = RM-1 subcutaneous syngeneic prostate cancer mouse model (Study 7), tumor growth inhibition; format: in vivo, mouse (C57BL/6); conditions: for Tumor size / TGI(%): RM-1 model, study end day Day 19; for Tumor size: Mean ± SEM, in mm³
Method: as §1, §2, §3, §4, §5, §6, §7, §8, §9, §10
FIG. 66 is a graph showing the mean tumor volume on different study days in the study groups as indicated according to Study 7 (RM-1). The study end day was Day 19.

Renca = Renca subcutaneous syngeneic kidney cancer mouse model (Study 8), tumor growth inhibition; format: in vivo, mouse (BALB/C); conditions: for Tumor size / TGI(%): Renca model, study end day Day 28; for Tumor size: Mean ± SEM, in mm³; for anti-tumor potency of anti-PD-1 antibody combined with the compound, compared to the antibody alone: Renca syngeneic kidney cancer model
Method: as §1, §2, §3, §4, §5, §6, §7, §8, §9, §10
FIG. 67 is a graph showing the mean tumor volume on different study days in the study groups as indicated according to Study 8 (Renca). The study end day was Day 28.

Hepa1-6 = Hepa1-6 subcutaneous syngeneic liver cancer mouse model (Study 9), tumor growth inhibition; format: in vivo, mouse (C57BL/6); conditions: for Tumor size / TGI(%): Hepa1-6 model, study end day Day 26; for Tumor size: Mean ± SEM, in mm³
Method: as §1, §2, §3, §4, §5, §6, §7, §8, §9, §10
FIG. 68 is a graph showing the mean tumor volume on different study days in the study groups as indicated according to Study 9 (Hepal-6). The study end day was Day 26.

B16F10 = B16F10 subcutaneous syngeneic melanoma mouse model (Study 10), tumor growth inhibition; format: in vivo, mouse (C57BL/6); conditions: for Tumor size / TGI(%): B16F10 model, study end day Day 19; for Tumor size: Mean ± SEM, in mm³
Method: as §1, §2, §3, §4, §5, §6, §7, §8, §9, §10
FIG. 69 is a graph showing the mean tumor volume on different study days in the study groups as indicated according to Study 10 (B16F10). The study end day was Day 19.

H22 = H22 subcutaneous syngeneic liver cancer mouse model (Study 11), tumor growth inhibition; format: in vivo, mouse (BALB/C); conditions: for Tumor size / TGI(%): H22 model, study end day Day 18; for Tumor size: Mean ± SEM, in mm³
Method: as §1, §2, §3, §4, §5, §6, §7, §8, §9, §10
FIG. 70 is a graph showing the mean tumor volume on different study days in the study groups as indicated according to Study 11 (H22). The study end day was Day 18.

[1] = MC38 syngeneic colon cancer model
[2] = RM-1 syngeneic prostate cancer model

Row | SMILES | TGI(%) (MC38) | Tumor size (Mean ± SEM) (MC38) [mm^3] | anti-tumor potency of anti-PD-1 antibody combined with the compound, compared to the antibody alone or the vehicle (MC38; [1]) | TGI(%) (EMT-6) | Tumor size (Mean ± SEM) (EMT-6) [mm^3] | anti-tumor potency of anti-PD-1 antibody combined with the compound, compared to the antibody alone or the vehicle (EMT-6) | anti-tumor potency of the compound combined with anti-PD-1 antibody, compared to being used alone (EMT-6) | TGI(%) (Pan02) | Tumor size (Mean ± SEM) (Pan02) [mm^3] | anti-tumor potency of anti-PD-1 antibody combined with the compound, compared to the antibody alone (Pan02) | Tumor size (RM-1) | TGI(%) (RM-1) | anti-tumor potency of anti-PD-1 antibody combined with the compound, compared to the antibody alone (RM-1; [2]) | Tumor size (Renca) | TGI(%) (Renca) | anti-tumor potency of anti-PD-1 antibody combined with the compound, compared to the antibody alone (Renca) | Tumor size (Hepa1-6) | TGI(%) (Hepa1-6) | Tumor size (B16F10) | TGI(%) (B16F10) | also measured
1 | COC(=O)c1csc(C(=O)c2c[nH]c3ccccc23)n1 [ARI-001] | 37 | 1624.33 ± 148.56 | statistically significant increase | 53 | 871.63 ± 142.67 | statistically significant increase | statistically significant increase | 60 | 357.19 ± 232.32 | statistically significant increase | 1732.55 ± 162.92 | 41 | statistically significant increase | 1367.52 ± 118.53 | 36 | statistically significant increase | 1174.25 ± 229.74 | 27 | 2089.97 ± 201.33 | 29 | anti-tumor potency of the compound combined with anti-PD-1 antibody, compared to being used alone (MC38; [1]): statistically significant increase; anti-tumor potency of the compound combined with anti-PD-1 antibody, compared to being used alone (RM-1; [2]): statistically significant increase; anti-tumor potency of the compound combined with anti-PD-1 antibody, compared to being used alone (Hepa1-6; Hepa1-6 syngeneic liver cancer model): statistically significant increase; Tumor size (H22): 1139.95 ± 207.21; TGI(%) (H22): 50%
2 | CCC(=O)c1csc(C(=O)c2c[nH]c3ccccc23)n1 [ARI-002] | 45 | 1419.94 ± 141.48 | statistically significant increase | 55 | 842.08 ± 135.38 | statistically significant increase | statistically significant increase | 66 | 308.02 ± 177.67 | statistically significant increase | 1744.11 ± 144.25 | 41 | statistically significant increase | 1101.99 ± 92.71 | 49 | statistically significant increase | 1018.26 ± 232.72 | 37 | 1994.41 ± 180.33 | 32 | anti-tumor potency of anti-PD-1 antibody combined with the compound, compared to the antibody alone or the vehicle (B16F10; B16F10 syngeneic melanoma model): statistically significant increase; Tumor size (H22): 1261.07 ± 203.55; TGI(%) (H22): 44%; anti-tumor potency of the compound combined with anti-PD-1 antibody, compared to being used alone (H22; H22 syngeneic liver cancer model): statistically significant increase
